Experimental data as given in patent US20260242320A1, “USE OF CANNABIDIOL DERIVATIVE IN PREPARATION OF MEDICAMENT” (priority 2023, published 2026).
“Also recorded” adds a separate entry of the source.

How the values were obtained:
[1] = test system: morphine-treated mice; test: Morphine-induced behavioral sensitization; format: in vivo; conditions: 0.2 mg/kg i.p.
Method: Mice were placed into the test chamber (40×40×40 cm^3) for 60 min to habituate the chamber for three consecutive days. […] Locomotor activity was recorded daily for 60 min after the administration of drugs. Next, all the mice were subjected to a 7-day withdrawal period (days 8-14). Subsequently, mice were given morphine (5 mg/kg, i.p.), and locomotor activity was recorded to determine behavioral sensitization.

[2] = target: T1, endogenous PKM2 in BV-2 cell lysate (Mus musculus, UniProt P52480); test: Cellular thermal shift assay (CETSA); format: binding
T1 construct: endogenous in cells; host or cells: BV-2 cells
Method: For CETSA experiments, BV-2 cells were seeded at a density of 4×10^5 cells/mL in 10 cm petri dishes. After 24 h, the medium was removed, and cells were washed with cold PBS (3.0 mL) 3 times and harvested by scraping. Cells were then isolated by centrifugation (1000 g, 5 min, 4° C.) and resuspended in cell lysis buffer (P0013, Beyotime Biotechnology) with the 1% protease inhibitor cocktail and then incubated on ice for 10 min. The lysates were centrifuged (12,000 g, 15 min, 4° C.), and the supernatants were collected. CIAC001 (50 μM) or vehicle control was incubated with BV-2 cell lysate supernatant for 2 h at 20° C. The lysate supernatants were divided into 60 μL each in microtubes. The lysates were heated at different temperatures (37-72° C.) for 5 min on a Long Gene A200 thermal cycler and cooled down at 25° C. for another 3 min. The samples were stored on ice until centrifugation (20,000 g, 4° C., 20 min) to remove precipitates. The lysate supernatants were denatured in 2× Laemmli sample buffer at 100° C. for 8 min for western blotting with the PKM2 antibody

[3] = test system: IL-1β in mPFC, NAc and VTA; test: IL-1β expression in brain regions after chronic morphine; format: in vivo; conditions: mice
Method: Total RNA was extracted from cells or mouse brains using the RNeasy Mini Kit. Isolated RNA was reverse-transcribed into cDNA using an RT2 Easy First Strand cDNA Synthesis Kit following the manufacturer's protocols. PCR amplification was conducted using synthetic primers, SYBR Green, and a TOptical Real-Time qPCR Thermal Cycler (Analytik Jena, Thuringia, Germany). The data were analyzed by the […] method, and Rpl711 or Rpl27 was used as an internal control.
Conditional place conditioning (CPP) was conducted using the classic 10-consecutive-day procedure. On days 1 and 2, each mouse was separately placed into the CPP apparatus for 15 min to habituate the apparatus. On day 3 (preconditioning), the time spent in each compartment was recorded to determine any preference for the two compartments. Mice were divided into three groups: vehicle group, 7.5 mg/kg morphine, as well as 7.5 mg/kg morphine+0.2 mg/kg CIAC001. During the conditioning phase, mice were separately isolated in the compartment for 30 min on 6 consecutive days. Mice were given morphine on days 4, 6, and 8, and vehicle (5 mL/kg) was administered on days 5, 7, and 9. […] Each mouse was placed in the apparatus and explored freely, and the time spent in each compartment was recorded for 15 min. The CPP score(s) was calculated using the time spent in the drug-paired compartment minus the time spent in the vehicle-paired compartment.

[4] = CPP assay for rewarding effect of CIAC001; format: in vivo, mice; conditions: 20 mg/kg i.p.
Method: Conditional place conditioning (CPP) was conducted using the classic 10-consecutive-day procedure. On days 1 and 2, each mouse was separately placed into the CPP apparatus for 15 min to habituate the apparatus. On day 3 (preconditioning), the time spent in each compartment was recorded to determine any preference for the two compartments. […] During the conditioning phase, mice were separately isolated in the compartment for 30 min on 6 consecutive days. Mice were given morphine on days 4, 6, and 8, and vehicle (5 mL/kg) was administered on days 5, 7, and 9. The postconditioning phase was carried out 24 h after the last conditioning session. Each mouse was placed in the apparatus and explored freely, and the time spent in each compartment was recorded for 15 min. The CPP score(s) was calculated using the time spent in the drug-paired compartment minus the time spent in the vehicle-paired compartment.

[5] = target: PKM2 protein (Homo sapiens, UniProt P14618); test: Fluorescence titration of purified PKM2; format: binding; conditions: PKM2 0.5 μM
Method: PKM2 protein (0.5 μM) was titrated with increasing concentrations of CIAC001, and the fluorescence intensity (λex 280 nm; λem 337 nm) was recorded by a fluorescence spectrophotometer (Cary Eclipse, Agilent Technologies Inc., USA). Appropriate controls were subtracted from the spectra obtained from the samples. The data were fitted by the nonlinear least squares method using Equation 8, derived from equations 1-7.
Because [LP2]^3 is far less than (LT+PT)×[LP2]^2, Equation 6 can be simplified as Equation 7, allowing derivation of Equation 8: […]
where F is the measured fluorescence; F0 is the initial fluorescence of PKM2 in the absence of CIAC001; FPL is an adjustable parameter for protein-ligand complex molar fluorescence; KD is the dissociation constant; LT is the total concentration of CIAC001; and PT is the total PKM2 concentration. The stoichiometry n was fitted according to the equation […].

[6] = target: T2, CB2 Receptor (Homo sapiens, UniProt P34972); test: cAMP measurement, forskolin-induced cAMP accumulation, CB2; format: cell-based; conditions: cAMP assay
T2 construct: expressed in transfected cells; host or cells: GloSensor 22-F HEK293 cells
Method: GloSensor 22-F HEK293 cells were transfected with plasmids encoding different receptors (CB1 and CB2). After 24 h, HEK293 cells were seeded at a density of 5×10^4 cells per well in 96-well plates and incubated for 8 h; then, the medium was removed, and 200 μL of serum-free DMEM medium containing 2% GloSensor cAMP substrate (Promega) was added. After 2 h incubation, the transfected cells were stimulated with different concentrations of ligands together with […]. The luminescence was recorded using a Multimode Plate Reader (En Vision, PerkinElmer).

[7] = target: T3, PKM2 tetramer / monomer (Mus musculus, UniProt P52480); test: Western blot of PKM2 tetramer and monomer in LPS-treated cells; format: cell-based
T3 construct: endogenous in cells; host or cells: BV-2 cells
Description: ImageJ was used for densitometric analysis.

T3 sequence (P52480 whole entry): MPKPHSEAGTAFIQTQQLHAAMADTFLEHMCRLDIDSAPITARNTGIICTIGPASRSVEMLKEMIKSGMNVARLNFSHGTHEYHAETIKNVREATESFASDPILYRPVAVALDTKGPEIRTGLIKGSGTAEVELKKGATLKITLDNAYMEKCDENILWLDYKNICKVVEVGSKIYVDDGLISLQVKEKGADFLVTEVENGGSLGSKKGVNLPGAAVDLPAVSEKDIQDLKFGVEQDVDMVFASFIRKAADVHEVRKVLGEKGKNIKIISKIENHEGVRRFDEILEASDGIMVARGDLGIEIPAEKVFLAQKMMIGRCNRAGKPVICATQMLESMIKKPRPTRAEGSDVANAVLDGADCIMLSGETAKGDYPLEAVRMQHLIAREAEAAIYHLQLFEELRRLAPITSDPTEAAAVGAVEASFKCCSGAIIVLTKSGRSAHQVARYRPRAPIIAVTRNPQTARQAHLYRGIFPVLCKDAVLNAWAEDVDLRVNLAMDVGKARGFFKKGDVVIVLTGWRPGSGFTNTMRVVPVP
Chain of PKM2 protein (P14618 whole entry, species assumed): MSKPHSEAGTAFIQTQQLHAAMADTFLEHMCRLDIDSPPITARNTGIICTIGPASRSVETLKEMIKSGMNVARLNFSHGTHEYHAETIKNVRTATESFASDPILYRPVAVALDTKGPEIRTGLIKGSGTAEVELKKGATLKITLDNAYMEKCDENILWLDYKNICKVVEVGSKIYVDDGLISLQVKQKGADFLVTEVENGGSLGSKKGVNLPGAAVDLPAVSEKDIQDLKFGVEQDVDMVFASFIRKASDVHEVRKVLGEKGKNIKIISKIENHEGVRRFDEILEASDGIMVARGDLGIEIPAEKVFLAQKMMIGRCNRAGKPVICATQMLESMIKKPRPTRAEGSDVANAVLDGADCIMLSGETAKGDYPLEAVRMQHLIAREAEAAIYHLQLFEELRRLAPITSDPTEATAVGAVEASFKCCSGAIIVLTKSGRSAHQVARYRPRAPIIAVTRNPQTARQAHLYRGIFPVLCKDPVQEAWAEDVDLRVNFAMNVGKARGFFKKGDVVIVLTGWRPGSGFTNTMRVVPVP
T1 sequence (P52480 whole entry): as the sequence (P52480 whole entry) above
T2 sequence (P34972 whole entry): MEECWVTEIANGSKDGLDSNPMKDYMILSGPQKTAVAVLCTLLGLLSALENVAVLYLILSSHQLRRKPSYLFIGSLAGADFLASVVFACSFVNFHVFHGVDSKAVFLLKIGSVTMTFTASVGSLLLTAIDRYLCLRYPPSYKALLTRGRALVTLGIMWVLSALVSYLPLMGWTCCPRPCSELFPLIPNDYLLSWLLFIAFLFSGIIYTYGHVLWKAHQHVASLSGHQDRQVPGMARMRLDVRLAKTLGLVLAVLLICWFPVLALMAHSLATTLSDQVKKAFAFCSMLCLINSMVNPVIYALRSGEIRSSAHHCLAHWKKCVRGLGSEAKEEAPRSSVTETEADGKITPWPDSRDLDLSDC

For `C=C(C)[C@@H]1CCC(C)=C[C@H]1c1c(O)cc(C(C)n2nccn2)cc1O` (stereo partly drawn) [CIAC001, (1′R,2′R)-4-(1-(2H-1,2,3-Triazol-2-yl)ethyl)-5′-methyl-2′-(prop-1-en-2-yl)-1′,2′,3′,4′-tetrahydro-[1,1′-biphenyl]-2,6-diol], the “locomotor response to morphine challenge (expression of behavioral sensitization)” value ([1]; day 15) was “decreased the locomotor response”, the “development of morphine-induced behavioral sensitization (induction period)” value ([1]; mice) was “significantly inhibited; also recorded: ameliorated” and the ΔTm at 50 µM [2] was 3.9 ± 1.3 °C. For the same compound, the “morphine-induced IL-1β overexpression in mPFC, NAc and VTA” value [3] was “inhibited”, the “rewarding effect (CPP after 6 consecutive days of training)” value [4] was “did not show any effect on CPP” and the “stoichiometry of CIAC001-PKM2 interaction” value [5] was 0.54±0.07. The Kd ([5]; intrinsic fluorescence quenching, read-out: dissociation constant KD) was 2200 ± 200 nM, the “CB2 receptor activity” value [6] was “no apparent CB1/CB2 activity” and the “LPS-induced decline of the PKM2 tetramer” value [7] was “reversed the LPS-induced decline of the PKM2 tetramer”. The “LPS-induced rise of the PKM2 monomer” value [7] was “inhibit the LPS-induced rise of the PKM2 monomer; also recorded: inhibited LPS-induced rise of the PKM2 monomer”.
